Where a name gives a salt, the structure may show the parent alone.
Tested on: motoneuron cells derived from iPS cells of ALS patients having C9orf72 mutation
Experiment: survival of motoneuron cells induced from ALS patient iPS cells (C9orf72 mutation)
Format: cell-based, human
Conditions: not given

Molecule	efficacy for ALS having C9orf72 mutation (conclusion from Tables 5 and 6)
CNC(=O)c1ccccc1Sc1ccc2c(/C=C/c3ccccn3)n[nH]c2c1 [Axitinib]	higher efficacy

Same assay, conditions: added on day 7, survived motoneuron cells counted on day 14

Molecule	cell survival rate improvement, C9orf72 mutation	cell survival rate improving effect, significance, C9orf72 mutation
CNC(=O)c1ccccc1Sc1ccc2c(/C=C/c3ccccn3)n[nH]c2c1 [Axitinib]	○ (cell survival rate improvement not less than 20%)	○ (significant difference (p < 0.05))
COc1cc(Nc2c(C#N)cnc3cc(OCCCN4CCN(C)CC4)c(OC)cc23)c(Cl)cc1Cl [Bosutinib]	○ (cell survival rate improvement not less than 20%)	○ (significant difference (p < 0.05))

Tested on: motoneuron cells derived from iPS cells of sporadic ALS patients
Experiment: survival of motoneuron cells induced from sporadic ALS patient iPS cells
Format: cell-based, human
Conditions: added on day 7, survived motoneuron cells counted on day 14

Molecule	cell survival rate improvement, sporadic	cell survival rate improving effect, significance, sporadic
CNC(=O)c1ccccc1Sc1ccc2c(/C=C/c3ccccn3)n[nH]c2c1 [Axitinib]	x (cell survival rate improvement less than 20%)	x (no significant difference (p ≧ 0.05))
COc1cc(Nc2c(C#N)cnc3cc(OCCCN4CCN(C)CC4)c(OC)cc23)c(Cl)cc1Cl [Bosutinib]	○ (cell survival rate improvement not less than 20%)	○ (significant difference (p < 0.05))

Tested on: motoneuron cells derived from iPS cells having SOD1-L144FVX mutation
Experiment: survival of motoneuron cells induced from ALS patient iPS cells (SOD1 mutation)
Conditions: FIG. 2, FIG. 6

Molecule	dose correlation in the protection effect on motoneuron cell having SOD1 mutation
CC(O)CC(=O)O (racemic) [3-hydroxybutyric acid]	increase in the effect in a dose-dependent manner
CNC(=O)c1ccccc1Sc1ccc2c(/C=C/c3ccccn3)n[nH]c2c1 [Axitinib]	increase in the effect in a dose-dependent manner
CCNC(=O)CCC/C=C\C[C@@H]1[C@@H](/C=C/[C@@H](O)CCc2ccccc2)[C@H](O)C[C@@H]1O [Bimatoprost]	increase in the effect in a dose-dependent manner
CC1=NN(c2ccccc2)C(=O)C1 [Edaravone]	increase in the effect in a dose-dependent manner
O=C(c1ccc(OCCN2CCCCC2)cc1)c1c(-c2ccc(O)cc2)sc2cc(O)ccc12 [Raloxifene]	increase in the effect in a dose-dependent manner

Same assay, conditions: SOD1-L144FVX motoneuron cells contacted with medicament for 7 days; negative control DMSO

Molecule	MN index (motoneuron cell survival number ratio as compared to negative control)
CCN(CC)Cc1cc(Nc2ccnc3cc(Cl)ccc23)ccc1O [AMODIAQUINE DIHYDROCHLORIDE, AMODIAQUINE]	8.98
CN1CCc2cccc3c2[C@H]1Cc1ccc(O)c(O)c1-3 [APOMORPHINE HYDROCHLORIDE, APOMORPHINE]	7.26
CNC(=O)c1ccccc1Sc1ccc2c(/C=C/c3ccccn3)n[nH]c2c1 [Axitinib]	7.35
CCOc1ccn(-c2ccc(F)cc2)c(=O)c1C(=O)Nc1ccc(Oc2ccnc(N)c2Cl)c(F)c1 [BMS 777607]	8.55
Cn1cnc2cc3c(Nc4cccc(Br)c4)ncnc3cc21 [BPIQ-I]	8.14
CCCCOC(=O)c1ccc(N)cc1 [BUTAMBEN]	7.39
Cc1nc(N)sc1-c1ccnc(Nc2ccc(N3CCOCC3)cc2)n1 [CYC116]	8.14
CCN(CC)C(=O)c1ccc(Nc2nc(OCC3CCCCC3)c3nc[nH]c3n2)cc1 [Cdk2 Inhibitor IV, NU6140]	7.08
C[C@@H](Oc1cc(-c2cnn(C3CCNCC3)c2)cnc1N)c1c(Cl)ccc(F)c1Cl [Crizotinib (PF- 2341066), Crizotinib]	7.60
Cn1cc(C2=C(c3cn(C4CCN(Cc5ccccn5)CC4)c4ccccc34)C(=O)NC2=O)c2ccccc21 [Enzastaurin]	9.84
O=C(O)CCC(=O)c1ccc(-c2ccccc2)cc1 [FENBUFEN]	7.22
CC1(C)O[C@@H]2C[C@H]3[C@@H]4C[C@H](F)C5=CC(=O)C=C[C@]5(C)[C@H]4[C@@H](O)C[C@]3(C)[C@]2(C(=O)CO)O1 [FLUNISOLIDE]	7.86
COc1ccc2c(c1OC)C(=O)OC2C1c2cc3c(cc2CCN1C)OCO3 [HYDRASTINE (1R,9S)]	7.53
Oc1ccc(O)cc1 [HYDROQUINONE]	7.96
O=C1Nc2ccccc2/C1=C1/Nc2ccccc2/C1=N\O [Indirubin-3′-monoxime]	7.54
O=C(c1ccc(/C=C/c2n[nH]c3ccccc23)cc1)N1CCNCC1 [KW 2449]	7.72
Cn1cnc(-c2cc3nccc(Oc4ccc(NC(=S)NC(=O)Cc5ccccc5)cc4F)c3s2)c1 [MGCD-265]	7.62
O=C(/C=C/C=C/c1ccc2c(c1)OCO2)N1CCCCC1 [PIPERINE]	7.39
Cc1ccc(Nc2nccc(N(C)c3ccc4c(C)n(C)nc4c3)n2)cc1S(N)(=O)=O [Pazopanib Hydrochloride]	9.53
Cc1cc2nc3c(=O)[nH]c(=O)nc-3n(C[C@H](O)[C@H](O)[C@H](O)CO)c2cc1C [RIBOFLAVIN]	9.55
O=C1c2ccccc2-c2n[nH]c3cccc1c23 [SP600125]	8.38
COc1ccc2c(c1)/C(=C/c1c[nH]cn1)C(=O)N2 [SU9516]	8.39
NCCNc1ncc(C(N)=O)c(Nc2cccc(C(F)(F)F)c2)n1 [Syk Inhibitor II]	7.59
Cc1cc(Nc2cc(N3CCN(C)CC3)nc(Sc3ccc(NC(=O)C4CC4)cc3)n2)n[nH]1 [VX-680, tozasertib]	9.58
O=C1NC(=O)c2c1c(-c1ccccc1Cl)cc1[nH]c3ccc(O)cc3c21 [Weel Inhibitor]	7.18
Cc1c(C)c2c(c(C)c1O)CC[C@@](C)(CCC[C@H](C)CCC[C@H](C)CCCC(C)C)O2 [alpha- TOCHOPHEROL, alpha-TOCHOPHEROL]	9.46
Bosutinib [Bosutinib (SKI-606)]	7.20
Sunitinib Malate	8.13

Same assay, conditions: added on day 7, survived motoneuron cells counted on day 14

Molecule	cell survival rate improvement, SOD1 mutation	cell survival rate improving effect, significance, SOD1 mutation
CNC(=O)c1ccccc1Sc1ccc2c(/C=C/c3ccccn3)n[nH]c2c1 [Axitinib]	x (cell survival rate improvement less than 20%)	x (no significant difference (p ≧ 0.05))
COc1cc(Nc2c(C#N)cnc3cc(OCCCN4CCN(C)CC4)c(OC)cc23)c(Cl)cc1Cl [Bosutinib]	○ (cell survival rate improvement not less than 20%)	○ (significant difference (p < 0.05))

Same assay, conditions: familial ALS (mSOD1 ALS) motoneuron cells; 0, 0.01, 0.1, 1, 10 μM; n=6, p<0.05; FIG. 7

Molecule	survival of motor neuron
O=C(Nc1c[nH]nc1-c1nc2cc(CN3CCOCC3)ccc2[nH]1)NC1CC1 [AT9283]	increased survival of motor neuron
Cc1ccc(NC(=O)c2ccc(CN3CC[C@H](N(C)C)C3)c(C(F)(F)F)c2)cc1Nc1nccc(-c2cncnc2)n1 [Bafetinib]	increased survival of motor neuron
Cc1ccc(NC(=O)c2ccc(CN3CCN(C)CC3)cc2)cc1Nc1nccc(-c2cccnc2)n1 [Imatinib]	increased survival of motor neuron
Cc1cn(-c2cc(NC(=O)c3ccc(C)c(Nc4nccc(-c5cccnc5)n4)c3)cc(C(F)(F)F)c2)cn1 [Nilotinib]	increased survival of motor neuron
CNC(=O)c1cc(Oc2ccc(NC(=O)Nc3cc(C(C)(C)C)nn3-c3ccc4ncccc4c3)c(F)c2)ccn1 [Rebastinib]	increased survival of motor neuron
